Here are results for four compounds from US20220387362A1, “COMPOSITIONS COMPRISING A DHODH INHIBITOR FOR THE TREATMENT OF ACUTE MYELOID LEUKEMIA” (RHIZEN PHARMACEUTICALS AG, priority 2019, published 2022).

Data set [1] concerns AML cell lines (U937, HL-60, THP-1 and MV411). As to the kind of experiment: Anti-proliferative effect with uridine rescue, AML cell lines together (MTT assay). In kind it is cell-based. The method, then:
(§1) Compound A was tested in the absence of Uridine (U937, HL-60, THP-1 and MV411 cell lines) or in the presence of Uridine (100 μM for U937, HL-60 and MV411 and 300 μM for THP-1). Cells were plated in 96-well plates and incubated with desired concentrations of Compound A for 72 h. At the end of the incubation period, MTT ((3-(4,5-dimethylthiazol-2-yl)-2,5-diphenyltetrazolium bromide)) was added. The plates were placed on a shaker for 5 min to mix the formazan and the optical density at 560 nm was measured on a spectrophotometer. Data were plotted using Graphpad prism for calculation of the GI50 concentrations.
In general terms: Tetrazolium dyes change colour on reduction, which living cells bring about.

Data set [2] deals with CD11b mRNA expression in THP-1. As to the kind of experiment: CD11b mRNA expression in THP-1 cell lines (Real-Time PCR). The class given is cell-based. The settings on record: THP-1, 3 μM, 72 hours. As for the experimental part: THP-1 cells were plated in complete media at pre-determined density in 6-well plates and the cells were treated with Compound A for 72 hours. mRNA was isolated using TRI reagent according to the manufacturer's protocol (TRI Reagent from Sigma). cDNA was synthesized using cDNA Synthesis kit according to manufacturer's protocol (First Strand cDNA Synthesis kit) and Real-Time PCR was performed. Data was calculated using delta delta Ct method. Fold change in mRNA expression was plotted using GraphPad Prism (Version 5.02)

For data set [3], the system named is THP-1. As to the kind of experiment: Anti-proliferative effect with uridine rescue (MTT assay). In kind it is cell-based. The settings on record: Homo sapiens, 72 h. The method, then:
as §1

The test system of data set [4] is HL-60. Described as above. In kind it is cell-based. As to conditions: Homo sapiens, 72 h. As for the experimental part:
as §1

For data set [5], the system named is MV411. Described as above. In kind it is cell-based. As to conditions: Homo sapiens, MV4-11, 72 h. As for the experimental part:
as §1

Data set [6] has as its system U937. The data set is described as above. As to conditions: Homo sapiens, U-937, 72 h. In kind it is cell-based. As for the experimental part: as §1
Data set [7] relates to AML cell line U937. As to the kind of experiment: Anti-proliferative effect in combination with gilteritinib (MTT assay). The class given is cell-based. As for the experimental part:
(§2) Compound A (at 3 μM) and gilteritinib (1.5 μM) was tested in AML cell line U937. Cells were plated in 96-well plates and incubated with desired concentrations of Compound A for 72 h. At the end of the incubation period, MTT ((3-(4,5-dimethylthiazol-2-yl)-2,5-diphenyltetrazolium bromide)) was added. The plates were placed on a shaker for 5 min to mix the formazan and the optical density at 560 nm was measured on a spectrophotometer. Data were plotted using Graphpad prism for calculation of the percentage inhibition to determine the effect of Compound A as a single agent or in combination with gilteritinib.

Data set [8] deals with CD11b expression in MV411. As to the kind of experiment: CD11b cell surface expression (flow cytometry). As to conditions: MV411, 3 μM, 72 hours. In kind it is cell-based. As for the experimental part:
(§3) Cells were plated in complete media at pre-determined density in 6-well plates and the cells were treated with Compound A 96 hours for THP-1 cell lines and 72 hours for MV411 cell lines) in the presence or absence of uridine. The cells were stained with CD11b Antibody PE according to manufacturer's protocol (CD11b Monoclonal Antibody (ICRF44), PE, eBioscience) and the cells were acquired and analysed by flow cytometry (Guava Easycyte).

Data set [9] relates to CD11b expression in THP-1. As to the kind of experiment: CD11b cell surface expression (flow cytometry). The class given is cell-based. The settings on record: THP-1, 5 μM, 96 hours. The method, then: as §3
In data set [10] the test system is AML cell line THP-1. As to the kind of experiment: Anti-proliferative effect in combination with gilteritinib (MTT assay). In kind it is cell-based. The method, then: as §2, with “Gilteritinib (0.25” for “gilteritinib (1.5”, “THP-1.” for “U937.”
Data set [11] deals with MV411 xenograft. As to the kind of experiment: MV411 mouse xenograft model. In kind it is in vivo. The method, then:
The effect of Compound A was determined in a MV411 mouse xenograft model. Briefly, 5×10^6 cells were injected into the right flank region by Subcutaneous administration under sterile condition. The oral administration of Compound (A) at 30 mg/kg/BID for 21 days. The tumors were measured using a calliper in two dimensions, length (a) and width (b). Tumor volumes were estimated from measurements of the two diameters of the individual tumors as follows: Tumor Volume (mm3)=(a×b2)/2. At the end of the study period, animals were sacrificed and the tumors harvested.

Data set [12] relates to THP-1. As to the kind of experiment: Anti-proliferative effect in AML cell lines (MTT assay). As to conditions: Homo sapiens, THP-1, 72 h. The class given is cell-based. The method, then: (§4) Compound A was tested across a panel of AML cell lines (U937, HL-60, THP-1, KG-1 and MV411). Cells were plated in 96-well plates and incubated with desired concentrations of Compound A for 72 hours (h). At the end of the incubation period, MTT ((3-(4,5-dimethylthiazol-2-yl)-2,5-diphenyltetrazolium bromide)) was added. The plates were placed on a shaker for 5 min to mix the formazan and the optical density at 560 nm was measured on a spectrophotometer. Data were plotted using Graphpad prism for calculation of the GI50 concentrations.

Data set [13] relates to KG-1. The description is as above. In kind it is cell-based. The settings on record: Homo sapiens, KG-1, 72 h. The method, then: as §4
Data set [14] deals with MV411. The description is as above. The class given is cell-based. The settings on record: Homo sapiens, MV4-11, MV411, 72 h. As for the experimental part:
as §4

For data set [15], the system named is U937. The data set is described as above. The class given is cell-based. The settings on record: Homo sapiens, U-937, U937, 72 h. As for the experimental part: as §4
For data set [16], the system named is HL60. The data set is described as above. In kind it is cell-based. As to conditions: Homo sapiens, HL-60, HL60, 72 h. As for the experimental part: as §4
The test system of data set [17] is AML cell lines (U937, HL-60, THP-1, KG-1 and MV411). As to the kind of experiment: Anti-proliferative effect across panel of AML cell lines (MTT assay). The class given is cell-based. As to conditions: U937, HL-60, THP-1, KG-1, MV411; 72 h; read-out: GI50 range over all AML cell lines tested. The method, then:
as §4

For data set [18] the following is noted: in combination with cyclosporine; cited from earlier work.
For data set [19] the following is noted: patients; cited from earlier work.
The mark [20] stands for this setting: Homo sapiens, U-937, U937, 72 h, Compound A 3 μM, gilteritinib 1.5 μM, read-out: % inhibition of cell growth.
[21] abbreviates: Homo sapiens, THP-1, 72 h, Compound A 3 μM, Gilteritinib 0.25 μM, read-out: % inhibition of cell growth.

Read-outs that look alike come from different tables or passages of the source.

For orientation: GI50 means the concentration at which growth is held to half of that of the control. The inhibition is how much of the control response was suppressed. As usually defined, the melting point is the temperature, or range, at which the solid turns liquid. For `CCCCOc1cccc(-c2cc(F)c(NC(=O)c3ccccc3C(=O)O)c(Cl)c2)c1` [Compound A, 2-(3′-butoxy-3-chloro-5-fluorobiphenyl-4-ylcarbamoyl)benzoic acid], the melting point lay in the range of 128 to 130 °C. Further, in [1] (100 μM or 300 μM uridine, read-out: GI50 over AML cell lines with addition of uridine), the GI50 is more than 10 µM. Further, the GI50 in [1] (U937, HL-60, THP-1, MV411, no uridine, read-out: GI50 range over AML cell lines, without uridine) was 2 to 3.2 µM. Further, the “induction of CD11b gene expression” value in data set [2] is given as 80 fold. The GI50 in data set [3] (THP-1, 300 μM uridine) is more than 10 µM. In addition, growth in data set [3] (THP-1, absence of uridine) was halved (GI50) at 2 µM. This compound also displayed a 50% growth inhibitory concentration (GI50) in [4] (HL-60, 100 μM uridine) of more than 10 µM. In data set [4] (HL-60, absence of uridine), this compound displayed a GI50 of 3.6 µM. For the same compound, the GI50 in [5] (MV411, 100 μM uridine) was more than 10 µM. Halving of growth in data set [5] (MV411, absence of uridine) (GI50) required 2.6 µM. In [6] (U937, 100 μM uridine), this compound displayed a GI50 of more than 10 µM. Moreover, the GI50 in data set [6] (U937, absence of uridine) was 3.2 µM. For the same compound, the inhibition at 3 µM in data set [7] (setting [20]) stood at 41.4%. Moreover, in data set [7] (U937, p<0.05), the “effect on activity of gilteritinib (cell growth inhibition)” value is on record as “potentiated”. For the same compound, in data set [8], the “CD11b cell surface expression, % of cell population” value turned out to be 35%. For the same compound, the “CD11b cell surface expression after addition of uridine” value in [9] (with uridine) came out at 15%. Moreover, in [9] (without uridine), the “CD11b cell surface expression, % of cell population” value is 40%. Further, in [10] (setting [21]), the inhibition at 3 µM is 35.8%. Besides, the “effect on activity of gilteritinib (cell growth inhibition)” value in data set [10] (THP-1, p<0.05) was “potentiated”. Also, in data set [11] (Compound A 30 mg/kg/BID oral 21 days, combination with cytarabine 20 mg/Kg), the tumor growth inhibition came out at 37%. In data set [11] (throughout the study period, MV411 xenograft mice), the “adverse events or body weight changes” value is on record as “No adverse events or body weight changes were observed”. In data set [12], this compound had a GI50 of 2.5 µM. For the same compound, the GI50 in data set [13] amounted to 7.6 µM. For the same compound, it took 2.5 µM to inhibit growth in data set [14] by half (GI50). The compound also had a GI50 in data set [15] of 2.4 µM. The compound also gave a GI50 in data set [16] of 3.5 µM. In data set [17], the GI50 lay within 2.4 to 7.6 µM.
For `CCc1nc(C(N)=O)c(Nc2ccc(N3CCC(N4CCN(C)CC4)CC3)c(OC)c2)nc1NC1CCOCC1` [Gilteritinib, reference compound], the inhibition at 1.5 µM in [7] (setting [20]) turned out to be 41.7%. In [10] (setting [21]), the inhibition at 0.25 µM was 40.1%.
On to `Cc1c(-c2ccc(-c3ccccc3F)cc2)nc2ccc(F)cc2c1C(=O)O` [brequinar], for which, in data set [18], the “toxic effects on oral administration” value was “toxic effects, including leukocytopenia and thrombocytopenia”.
As for `Cc1oncc1C(=O)Nc1ccc(C(F)(F)F)cc1` [leflunomide], the half-life time result in data set [19] is reported as “approximately 2 weeks”.
